According to patent publication US7803795B2, “Phthalazine derivatives as parp inhibitors” (Janssen Pharmaceutica N.V., priority 2004, dated 2010):

How the values were obtained:
[1] = biological target: T1, PARP-1 enzyme (Homo sapiens, UniProt P09874); assay: in vitro filtration assay for PARP-1 inhibitory activity; format: biochemical; conditions: [32P]-NAD, histones, nicked DNA; dose-response 10^-5 M to 10^-8 M; read-out: in vitro filter assay PARP-1 pIC50 (converted)
T1 construct: made in house
Method: In Vitro Filtration Assay for PARP-1 Inhibitory Activity
Compounds of the present invention were tested in an in vitro filtration assay assessing PARP-1 activity (triggered in the presence of nicked DNA) by means of its histone poly (ADP-ribosylation activity using [^32P]-NAD as ADP-ribosyl donor. The radioactive ribosylated histones were precipitated by trichloroacetic acid (TCA) in 96-well filterplates and the incorporated [^32P] measured using a scintillation counter
A mixture of histones (stock solution: 5 mg/ml in H2O), NAD^+ (stock solution: 100 mM in H2O), and [^32P]-NAD^+ in incubation buffer (50 mM Tris/HCl, pH 8; 0.2 mM DTT; 4 mM MgCl2) was made. A mixture of the PARP-1 enzyme (5-10 μg/ml) and nicked DNA was also made. The nicked DNA was prepared as described in the in vitro SPA for PARP-1 inhibitory activity. Seventy-five μl of the PARP-1 enzyme/DNA mixture together with 1 μl of compound in DMSO and 25 μl of histones-NAD^+/[^32P]-NAD^+ mixture was added per well of a 96-well filterplate (0.45 μm, supplier Millipore). The final concentrations in the incubation mixture were 2 μg/ml for the histones, 0.1 mM for the NAD^+, […] (0.5 μC) for the [^32P]-NAD^+ and 2 μg/ml for the nicked DNA. Plates were incubated for 15 min. at room temperature and the reaction was terminated by the addition of 10 μl ice cold 100% TCA followed by the addition of 10 μl ice-cold BSA solution (1% in H2O). The protein fraction was allowed to precipitate for 10 min. at 4° C. and plates were vacuum filtered. The plates were subsequently washed with, for each well, 1 ml of 10% ice cold TCA, 1 ml of 5% ice cold TCA and 1 ml of 5% TCA at room temperature. Finally 100 μl of scintillation solution (Microscint 40, Packard) was added to each well and the plates were transferred to a TopCountNXT™ (supplier: Packard) for scintillation counting and values were expressed as counts per minute (cpm). For each experiment, controls (containing PARP-1 enzyme and DMSO without compound), a blank incubation (containing DMSO but no PARP-1 enzyme or compound) and samples (containing PARP-1 enzyme and compound dissolved in DMSO) were run in parallel. All compounds tested were dissolved and eventually further diluted in DMSO. In first instance, compounds were tested at a concentration of 10^−5M. […] In each test, the blank value was subtracted from both the control and the sample values. The control sample represented maximal PARP-1 enzyme activity. For each sample, the amount of cpm was expressed as a percentage of the mean cpm value of the controls. When appropriate, IC50-values (concentration of the drug, needed to reduce the PARP-1 enzyme activity to 50% of the control) were computed using linear interpolation between the experimental points just above and below the 50% level. Herein the effects of test compounds are expressed as pIC50 (the negative log value of the IC50-value). As a reference compound, 4-amino-1,8-naphthalimide was included to validate the filtration assay.

[2] = biological target: T2, TANK-2 enzyme (Homo sapiens, UniProt Q9H2K2); assay: in vitro Scintillation Proximity Assay (SPA) for TANK-2 inhibitory activity; format: biochemical
T2 construct: His tag (inferred from capture on a Ni-coated plate); made in house
T2 sequence (Q9H2K2 1-1166): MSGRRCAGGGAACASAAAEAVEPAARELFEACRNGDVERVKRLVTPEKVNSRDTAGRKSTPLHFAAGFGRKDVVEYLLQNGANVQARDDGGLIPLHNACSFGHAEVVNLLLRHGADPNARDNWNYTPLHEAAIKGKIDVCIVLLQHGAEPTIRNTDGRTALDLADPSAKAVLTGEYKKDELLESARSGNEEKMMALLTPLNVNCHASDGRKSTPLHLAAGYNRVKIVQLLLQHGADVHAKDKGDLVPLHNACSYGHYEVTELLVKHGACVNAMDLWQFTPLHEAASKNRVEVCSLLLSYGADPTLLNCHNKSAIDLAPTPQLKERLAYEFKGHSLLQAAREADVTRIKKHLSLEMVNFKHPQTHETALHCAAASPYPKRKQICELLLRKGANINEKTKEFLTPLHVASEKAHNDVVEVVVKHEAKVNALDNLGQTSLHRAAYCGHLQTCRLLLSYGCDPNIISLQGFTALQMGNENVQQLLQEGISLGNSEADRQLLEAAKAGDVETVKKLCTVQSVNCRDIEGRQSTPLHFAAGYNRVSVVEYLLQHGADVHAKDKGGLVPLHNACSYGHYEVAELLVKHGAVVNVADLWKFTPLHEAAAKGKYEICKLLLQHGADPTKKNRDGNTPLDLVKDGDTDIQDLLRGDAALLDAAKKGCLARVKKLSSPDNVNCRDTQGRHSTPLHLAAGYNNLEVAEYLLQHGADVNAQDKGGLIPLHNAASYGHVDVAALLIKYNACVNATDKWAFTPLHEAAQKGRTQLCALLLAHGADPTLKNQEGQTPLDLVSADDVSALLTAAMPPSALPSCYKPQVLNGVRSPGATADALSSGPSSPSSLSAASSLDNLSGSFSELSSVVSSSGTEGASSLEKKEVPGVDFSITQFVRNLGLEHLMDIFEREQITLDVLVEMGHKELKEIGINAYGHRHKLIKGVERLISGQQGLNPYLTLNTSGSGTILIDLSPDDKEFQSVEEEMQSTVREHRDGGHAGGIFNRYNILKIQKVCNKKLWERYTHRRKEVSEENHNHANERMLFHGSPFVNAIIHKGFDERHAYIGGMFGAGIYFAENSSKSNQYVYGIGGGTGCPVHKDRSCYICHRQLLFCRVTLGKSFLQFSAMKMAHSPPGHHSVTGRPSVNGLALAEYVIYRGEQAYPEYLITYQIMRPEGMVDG
Method: In Vitro Scintillation Proximity Assay (SPA) for Tank-2 Inhibitory Activity
Compounds of the present invention were tested in an in vitro assay based on SPA technology with Ni Flash plates (96 or 384 well).
In principle, the assay relies upon SPA technology for the detection of auto-poly(ADP-ribosylation of TANK-2 protein using [^3H]-nicotinamide adenine dinucleotide ([^3H]-NAD^+) as ADP-ribosyl donor.
A stock solution of [^3H]-NAD^+/NAD was made by adding 64.6 μl of [^3H]-NAD^+ (0.1 mCi/ml, supplier: Perkin Elmer) and 46.7 μl NAD-stock (10.7 mM, stored at −20° C., supplier Roche) to 1888.7 μl assay buffer (60 mM Tris/HCl, pH 7.4; 0.9 mM DTT; 6 mM MgCl2). The TANK-2 enzyme was produced as described in EP1238063.60 μl of assay buffer, together with 1 μl of compound in DMSO, 20 μl of [^3H]-NAD^+/NAD and 20 μl of TANK-2 enzyme (final concentration 6 μg/ml) was added per well into a 96-well Ni-coated flash plate (Perkin Elmer). After incubation of the mixture for 120 min. at room temperature, the reaction was terminated by adding 60 μl of stopsolution (42.6 mg NAD in 6 ml H2O). The plates were covered with a plate sealer and placed in a TopCountNXT™ (Packard) for scintillation counting. Values were expressed as counts per minute (cpm). For each experiment, controls (containing TANK-2 enzyme and DMSO without compound), a blank incubation (containing DMSO but no TANK-2 enzyme or compound) and samples (containing TANK-2 enzyme and compound dissolved in DMSO) were run in parallel. All compounds tested were dissolved and eventually further diluted in DMSO. […] In each test, the blank value was subtracted from both the control and the sample values. The control sample represented maximal TANK-2 enzyme activity. For each sample, the amount of cpm was expressed as a percentage of the mean cpm value of the controls. When appropriate, IC50-values (concentration of the drug, needed to reduce the TANK-2 enzyme activity to 50% of the control) were computed using linear interpolation between the experimental points just above and below the 50% level. Herein the effects of test compounds are expressed as pIC50 (the negative log value of the IC50-value). As reference compounds, 3-aminobenzamide and 4-amino-1,8-naphthalimide were included to validate the SPA assay. Herein the assay was described using 96-well plates. In the assay using 384-well plates the same final concentrations were used and volumes were adapted.

[3] = system: heart (ischemia and reperfusion); conditions: rabbits, cited from earlier work
[4] = system: distal colon (colitis); conditions: rats, colitis by intraluminal trinitrobenzene sulfonic acid in 50% ethanol; cited from earlier work

T1 sequence (P09874 whole entry): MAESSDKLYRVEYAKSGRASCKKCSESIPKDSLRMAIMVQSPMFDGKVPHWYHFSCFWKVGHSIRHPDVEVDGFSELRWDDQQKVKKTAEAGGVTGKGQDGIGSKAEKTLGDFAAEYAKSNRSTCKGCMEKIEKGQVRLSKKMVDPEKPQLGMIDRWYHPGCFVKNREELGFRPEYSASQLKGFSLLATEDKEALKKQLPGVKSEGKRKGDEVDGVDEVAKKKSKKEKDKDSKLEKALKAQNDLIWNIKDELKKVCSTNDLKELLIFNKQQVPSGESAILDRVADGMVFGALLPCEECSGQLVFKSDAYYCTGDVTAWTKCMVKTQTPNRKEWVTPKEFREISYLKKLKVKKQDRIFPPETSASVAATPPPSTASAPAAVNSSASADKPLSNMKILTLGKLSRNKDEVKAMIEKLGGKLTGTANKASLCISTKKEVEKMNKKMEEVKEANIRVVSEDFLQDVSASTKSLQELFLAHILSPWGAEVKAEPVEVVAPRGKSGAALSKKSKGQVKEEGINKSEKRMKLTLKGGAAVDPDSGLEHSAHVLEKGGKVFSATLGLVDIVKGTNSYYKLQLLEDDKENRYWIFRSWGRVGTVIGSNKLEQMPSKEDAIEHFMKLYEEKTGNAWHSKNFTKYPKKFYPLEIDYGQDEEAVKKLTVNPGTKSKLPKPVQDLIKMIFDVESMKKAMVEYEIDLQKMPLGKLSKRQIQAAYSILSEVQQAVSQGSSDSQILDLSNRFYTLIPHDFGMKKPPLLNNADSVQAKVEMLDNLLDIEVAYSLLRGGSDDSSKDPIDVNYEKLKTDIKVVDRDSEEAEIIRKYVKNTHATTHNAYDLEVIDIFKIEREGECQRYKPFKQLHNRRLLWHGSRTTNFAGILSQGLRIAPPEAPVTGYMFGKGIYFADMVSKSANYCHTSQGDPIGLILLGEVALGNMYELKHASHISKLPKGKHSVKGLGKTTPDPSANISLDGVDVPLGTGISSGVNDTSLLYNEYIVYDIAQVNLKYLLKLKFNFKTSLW

Structure (SMILES)	IC50 [1] [nM]	IC50 [2] [nM]	melting point [°C]	reductions in infarct size in the heart ([3]; single injection 10 mg/kg, one minute before occlusion or one minute before reperfusion)	effect on inflammatory response and distal colon [4]	reduced infarct size ([3]; single injection 1 mg/kg)
NC(=O)c1cccc(N)c1 [3-amino-benzamide]	–	–	–	32-42%	reduced the inflammatory response	–
NC(=O)N1CCC(c2n[nH]c(=O)c3ccccc23)CC1 [Compound 6]	195	> 10000	> 300	–	–	–
CC(=O)N1CCC(c2n[nH]c(=O)c3ccccc23)CC1 [Compound 5]	270	> 10000	222	–	–	–
O=c1[nH]nc(C2CCN(CC(O)COc3ccc(F)cc3)CC2)c2ccccc12 (centres unmarked) [Compound 2]	17.2	–	226.9	–	–	–
N#CCN1CCC(c2n[nH]c(=O)c3ccccc23)CC1 [Compound 7]	88.9	9620	259	–	–	–
Oc1cccc2c(O)nccc12 [1,5-dihydroxyisoquinoline]	–	–	–	–	–	38-48%

Further lines, with some results ahead:

IC50 [1] [nM]	IC50 [2] [nM]	melting point [°C]	Structure (SMILES)	reductions in infarct size in the heart ([3]; single injection 10 mg/kg, one minute before occlusion or one minute before reperfusion)	effect on inflammatory response and distal colon [4]	reduced infarct size ([3]; single injection 1 mg/kg)
15.5	> 10000	182	NCC1CCN(c2n[nH]c(=O)c3ccccc23)CC1 [Compound 9]	–	–	–
29	> 10000	202	NCCN1CCC(c2n[nH]c(=O)c3ccccc23)CC1 [Compound 8]	–	–	–
24.3	> 10000	238	O=c1[nH]nc(N[C@H]2CCN[C@@H](Cc3ccccc3)C2)c2ccccc12 [Compound 10]	–	–	–
378	> 10000	140	CCOC(=O)N1CC[C@H](Nc2n[nH]c(=O)c3ccccc23)C[C@@H]1Cc1ccccc1 [Compound 16]	–	–	–
